Laboratory results reported in patent publication US10149644B2, “Curcumin derivatives for amyloid-β plaque imaging” (The General Hospital Corporation, priority 2008, dated 2018).
“Also recorded” adds a separate entry of the source. Where two headings read alike, the source gives them in different places.

What was measured:
[1] = target: T1, Aβ40 aggregates (Homo sapiens, UniProt P05067); assay: In vitro Aβ aggregates binding constant measurement
T1 construct: Synthetic amyloid-b protein (1-40) was purchased from rPeptide; purchased rPeptide (Bogart, Ga.)
T1 sequence (P05067 672-711 limits assumed): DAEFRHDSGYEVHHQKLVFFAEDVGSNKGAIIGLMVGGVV
Experimental: […] The Kd binding curve was generated by software Prism 3.0 with nonlinear one-site binding regression.
Binding constant (Kd) of CRANAD-2 towards Aβ aggregates was measured by fluorescence intensity (F.I.) with various concentrations of the prob.

[2] = target: T1, Aβ40 aggregates; assay: Fluorescence response of probe to Aβ40 aggregates, Aβ40 monomer and PBS; format: binding
Text: We compared the fluorescence intensity of CRANAD-2 with PBS (pH 7.4), Aβ40 peptide, and Aβ40 aggregates generated from Cu^2+ induced aggregation.

[3] = Serum stability test; format: in vitro ADME, human; details: for recovery at 2 h, 4 μM: human, human serum, 37° C., ethyl acetate extraction
Experimental: CRANAD-2 (4.0 μM) was incubated at 37° C. for 2 h with 1.0 mL human serum, then ethyl acetate (4×5.0 mL) was added, stirred at room temperature for 10 min., and centrifuged to give clear organic supernatant. The ethyl acetate solution was subjected to fluorescence intensity measurement (F.I.(660 nm)=8713), and the concentration of CRANAD-2 was calculated (0.14 μM) using the equation (Y=474+61.7 X, where Y is F.I., and X is the concentration) generated from standard curve of CRANAD-2 in ethyl acetate. The recovery of CRANAD-2 was about 70%. After the fluorescence measurement, the ethyl acetate solution was concentrated to 40 μL, and 10 μL was injected for HPLC analysis. By HPLC, the recovery of CRANAD-2 was about 75%, which was close to the result from fluorescence measurement.
(§1) Since serum albumin is the most abundant plasma protein, it was important to test whether the probe had any affinity toward this protein. To test this the inventors incubated CRANAD-2 probe with BSA. For controls, the inventors used PBS buffer alone, the probe incubated in PBS alone, and with Aβ40 aggregates. […] In addition, the inventors tested CRANAD-2 stability by incubating the probe (4×10^−6M) with human serum for 2 hours at 37° C.

[4] = target: T2, BSA (Bos taurus, UniProt P02769); assay: BSA interaction; format: binding; details: BSA 20 μg/mL, probe 5 μM
T2 construct: purchased Sigma
T2 sequence (P02769 25-607): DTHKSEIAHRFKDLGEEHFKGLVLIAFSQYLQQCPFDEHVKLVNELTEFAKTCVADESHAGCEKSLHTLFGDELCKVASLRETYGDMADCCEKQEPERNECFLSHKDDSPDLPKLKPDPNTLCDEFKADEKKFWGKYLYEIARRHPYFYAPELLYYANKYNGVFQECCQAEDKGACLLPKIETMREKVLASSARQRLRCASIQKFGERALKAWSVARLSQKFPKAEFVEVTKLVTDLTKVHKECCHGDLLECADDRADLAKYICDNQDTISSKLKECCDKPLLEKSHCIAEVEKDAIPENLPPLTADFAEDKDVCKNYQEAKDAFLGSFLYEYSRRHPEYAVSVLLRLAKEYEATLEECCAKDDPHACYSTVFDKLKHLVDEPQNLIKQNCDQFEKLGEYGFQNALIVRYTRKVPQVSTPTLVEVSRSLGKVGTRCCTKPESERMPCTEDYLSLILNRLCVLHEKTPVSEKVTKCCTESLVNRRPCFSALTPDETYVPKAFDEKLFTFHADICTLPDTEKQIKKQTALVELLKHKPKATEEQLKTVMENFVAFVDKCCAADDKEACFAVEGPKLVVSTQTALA
Experimental: CRANAD-2 was added to a BSA (20 μg/mL) solution to make the final concentration of 5 μM. The fluorescence spectrum of the above mixture was recorded (excited at 590 nm). For comparisons, CRANAD-2 (5 μM) in PBS, PBS alone, and Aβ40 aggregates ([…]) and CRANAD-2 (5 μM) were prepared.
as §1

[5] = system: Aβ plaques; assay: Histological staining of Tg2576 mice brain slices; details: co-staining with Thioflavin S
Experimental: Tg2576 mice brain tissue was cut into 25 micron slices. The slices were fixed with 4% formalin for 5 min and washed with PBS buffer twice. For Thioflavin S staining the slices were dipped into thioflavin S solution (1.0% in 50% ethanol) for 5 min., then differentiated in 70% ethanol for 5 min., rinsed with distilled water twice and mounted using Vecta shield mounting medium. Similar procedure was used to incubate sliced tissue with our probe. Histological slide was treated with, 0.01% CRANAD-2 in 10% acetone, 40% ethanol and 50% water for 15 min. For co-staining: the procedure was similar. The slices were first stained with thioflavin S, and washed with 70% ethanol for 5 min, then stained with the solution of CRANAD-2.

[6] = system: senile plaques; assay: Ex vivo histological correlation; format: in vivo, mice; details: 19-month old transgenic mice, 10 mg/kg i.v.
Experimental: 19 month-old mouse was injected CRANAD-2 (10.0 mg/kg), and was sacrified after perfusion with 4% formaldehyde. The brain was taken and embedded in OCT. For histology, the brain was sliced into 25μ slices, and co-stained with thioflavin S as described above. To obtain ex vivo confirmation of the probe binding, mice at different ages were i.v injected with 10 mg/kg of CRANAD-2 probe, perfused and scarified at 1 h after injection.

[7] = system: Aβ plaques; assay: AD tissue staining of APP-PS1 brain sections; details: 25 micron sections, 12-month old APP-PS1 mice
Text: The inventors conducted tissue staining with 25 micron brain sections from 12-month old APP-PS1 mice by all the compounds listed in FIG. 12.

[8] = target: T1, Aβ40 aggregates; assay: Aβ aggregates detection in solution by fluorescence spectrum; format: binding; details: 250 nM compound, 250 nM Aβ40 aggregates, PBS, one minute
Experimental: They then incubated 250 nM of the compounds with 250 nM of Aβ40 aggregates (calculation based on monomer) in PBS for one minute, and then measured the fluorescence spectra of the solutions.

[9] = Fluorescence emission properties of the probes; format: physicochemical
Experimental: Reagents used for synthesis were purchased from Aldrich without further purification. Column chromatography was performed on silica gel (SiliCycle Inc., 60 Å, […]) slurry packed into glass columns. Thioflavin S was purchased from Aldrich. Synthetic amyloid-b protein (1-40) was purchased from rPeptide (Bogart, Ga., 30622) and aggregates for in vitro studies were generated followed the reported procedure. BSA was purchased from Sigma, and human serum was obtained from Invitrogen (type AB). ^1H and ^13C NMR spectra were recorded at 400 MHz and 100 MHz respectively, and are reported in ppm downfield from tetramethylsilane. Fluorescence studies were carried out with F-4500 Fluorescense Spectrophotometer. Fluorescence quantum yields were determined using aqueous solution of Cy5.5-maleimide as a standard (y=0.23). High resolution mass spectra were obtained at the Harvard University, Department of Chemistry Instrumentation Facility. Transgenic Tg2576 mice {45} and littermates were purchased from Taconic Farm, Balb/c mice for BBB penetrating test were obtained from Jackson Laboratory, and the experiment procedure was approved by Massachusetts General Hospital. In vivo imaging was recorded on Kodak Imaging Station 2000MM.
Furthermore, by comparing the fluorescence intensity in methanol, the quantum yield of CRANAD-2 was significant higher than that of curcumin (FIG. 2). […] Additionally, these modifications produced a large stokes shift and improved quantum yield of CRANAD-2. The synthesized compound produced the longest emission and the largest stokes shift among the existing probes for senile plaque detection {3}.

Affinity to Aβ aggregates [1]: high affinity to Aβ aggregates
Kd ([1]; Aβ40 aggregates in PBS, fluorescence intensity, nonlinear one-site regression, read-out: Binding constant (Kd) towards Aβ aggregates): 38.7 ± 2.77 nM
Quantum yield in PBS buffer ([2]; PBS buffer): 0.6%
Quantum yield in PBS ([2]; PBS, given as fraction): 0.006
Quantum yield after binding to Aβ40 aggregates ([2]; bound to Aβ40 aggregates, given as fraction): 0.40
Quantum yield upon binding to aggregates ([2]; bound to aggregates): 40%
Fluorescence intensity increase in the presence of Aβ40 aggregates ([2]; vs PBS): 70 fold
Stability in serum in vitro [3]: considerable stability in serum
recovery at 2 h, 4 μM ([3]; read-out: Recovery after serum incubation, by HPLC): ~75%
recovery at 2 h, 4 μM ([3]; read-out: Recovery after serum incubation, by fluorescence): ~70%
Fluorescence intensity change with Aβ40 aggregates [8]: intensity increases
Wavelength shift with Aβ40 aggregates [8]: wavelength blue-shifts
Stoke shift in PBS ([9]; PBS only): 140 nm
Stoke shift in PBS with Aβ aggregates ([9]; PBS with Aβ aggregates): 70 nm
λmax(em) ([9]; probe alone, methanol (FIG. 2)): 760 nm
λmax(ex) ([9]; probe alone, methanol (FIG. 2)): 640 nm
Structure (SMILES): CN(C)c1ccc(/C=C/C2=CC(/C=C/c3ccc(N(C)C)cc3)=[O+][B-](F)(F)O2)cc1 [CRANAD-2]
Fluorescence intensity with Aβ40 peptide monomer vs PBS ([2]; Aβ40 monomer): did not observe any significant difference
Binding to BSA / fluorescence change with BSA [4]: did not observe any significant change in fluorescence; also recorded: did not show any significant binding; also recorded: does not show any significant binding
Staining of Aβ plaques in brain tissue [5]: specificity towards Aβ plaques; also recorded: specific staining with Aβ plaques
Labelling of senile plaques ex vivo after i.v. injection [6]: senile plaques were observed
Staining of plaques in brain sections [7]: good staining
Staining of plaques in brain sections ([7]; listed as CRANAD2): stained the plaques brightly
